Experiments:
Galendromus occidentalis [1] = assay: Toxicity against Metaseiulus occidentalis adults in bean leaf disk infested with two-spotted spider mites assessed as corrected mortality at 0.1167/8 g AI/L treated using worst-case laboratory exposure procedure measured after 72 hr; format: functional
Galendromus occidentalis [2] = assay: Toxicity against Metaseiulus occidentalis adults in bean leaf disk infested with two-spotted spider mites assessed as mortality treated using worst-case laboratory exposure procedure measured after 72 hr; format: functional
Galendromus occidentalis [3] = assay: Toxicity against Metaseiulus occidentalis adults in bean leaf disk infested with two-spotted spider mites assessed as corrected mortality at 0.1167 g AI/L treated using worst-case laboratory exposure procedure measured after 72 hr; format: functional
Galendromus occidentalis [4] = assay: Toxicity against Metaseiulus occidentalis adults in bean leaf disk infested with two-spotted spider mites assessed as average number of eggs laid (fecundity)at 0.1167 g AI/L treated using worst-case laboratory exposure procedure measured after 72 hr (reference value: 2.23/day); format: functional
Galendromus occidentalis [5] = assay: Toxicity against Metaseiulus occidentalis adults in bean leaf disk infested with two-spotted spider mites assessed as repellency at 0.1167 g AI/L treated using worst-case laboratory exposure procedure measured after 24 hr (reference value: 3.6%); format: functional
Galendromus occidentalis [6] = assay: Toxicity against Metaseiulus occidentalis adults in bean leaf disk infested with two-spotted spider mites assessed as repellency at 0.1167 g AI/L treated using worst-case laboratory exposure procedure measured after 48 hr (reference value: 13.6%); format: functional
Galendromus occidentalis [7] = assay: Ovicidal activity against Metaseiulus occidentalis eggs in bean leaf disk infested with two-spotted spider mites assessed as corrected cumulative mortality at 700 g/kg WP formulation treated using worst-case laboratory exposure procedure measured after 144 hr (reference value: 0.7%); format: functional
Galendromus occidentalis [8] = assay: Toxicity against Metaseiulus occidentalis adults in bean leaf disk infested with two-spotted spider mites assessed as average number of eggs laid (fecundity) at 0.1167 g AI/L treated using worst-case laboratory exposure procedure measured after 48 hr (reference value: 2.30/day); format: functional
Galendromus occidentalis [9] = assay: Toxicity against Metaseiulus occidentalis adults in bean leaf disk infested with two-spotted spider mites assessed as corrected mortality at 0.1167/128 g AI/L treated using worst-case laboratory exposure procedure measured after 72 hr; format: functional
Galendromus occidentalis [10] = assay: Toxicity against Metaseiulus occidentalis adults in bean leaf disk infested with two-spotted spider mites assessed as corrected mortality at 2x0.1167 g AI/L treated using worst-case laboratory exposure procedure measured after 72 hr; format: functional
Galendromus occidentalis [11] = assay: Toxicity against Metaseiulus occidentalis adults in bean leaf disk infested with two-spotted spider mites assessed as corrected mortality at 4x0.1167 g AI/L treated using worst-case laboratory exposure procedure measured after 72 hr; format: functional
Galendromus occidentalis [12] = assay: Toxicity against Metaseiulus occidentalis adults in bean leaf disk infested with two-spotted spider mites assessed as average number of eggs laid (fecundity) at 0.1167 g AI/L treated using worst-case laboratory exposure procedure measured after 24 hr (reference value: 2.11/day); format: functional
Galendromus occidentalis [13] = assay: Toxicity against Metaseiulus occidentalis adults in bean leaf disk infested with two-spotted spider mites assessed as repellency at 0.1167 g AI/L treated using worst-case laboratory exposure procedure measured after 72 hr (reference value: 16.1%); format: functional
Galendromus occidentalis [14] = assay: Toxicity against Metaseiulus occidentalis adults in bean leaf disk infested with two-spotted spider mites assessed as corrected mortality at 0.1167/46 g AI/L treated using worst-case laboratory exposure procedure measured after 72 hr; format: functional
Galendromus occidentalis [15] = assay: Toxicity against Metaseiulus occidentalis adults in bean leaf disk infested with two-spotted spider mites assessed as corrected mortality at 0.1600/8 g AI/L treated using worst-case laboratory exposure procedure measured after 72 hr; format: functional
Galendromus occidentalis [16] = assay: Toxicity against Metaseiulus occidentalis adults in bean leaf disk infested with two-spotted spider mites assessed as average number of eggs laid (fecundity) at 0.1600 g AI/L treated using worst-case laboratory exposure procedure measured after 24 hr (reference value: 2.11/day); format: functional
Galendromus occidentalis [17] = assay: Ovicidal activity against Metaseiulus occidentalis eggs in bean leaf disk infested with two-spotted spider mites assessed as corrected cumulative mortality at 240 g/L SC formulation treated using worst-case laboratory exposure procedure measured after 144 hr (reference value: 0.7%); format: functional
Neoseiulus fallacis = assay: Toxicity against Neoseiulus fallacis in hop fields assessed as mortality; format: functional, Garman
Galendromus occidentalis [18] = assay: Toxicity against Metaseiulus occidentalis adults in bean leaf disk infested with two-spotted spider mites assessed as corrected mortality at 0.1600 g AI/L treated using worst-case laboratory exposure procedure measured after 72 hr; format: functional
Amblyseius andersoni = assay: Toxicity against Amblyseius andersoni in hop fields assessed as mortality; format: functional
Galendromus occidentalis [19] = assay: Toxicity against Metaseiulus occidentalis adults in bean leaf disk infested with two-spotted spider mites assessed as repellency at 0.1600 g AI/L treated using worst-case laboratory exposure procedure measured after 72 hr (reference value: 16.1%); format: functional
Galendromus occidentalis [20] = assay: Toxicity against Metaseiulus occidentalis adults in bean leaf disk infested with two-spotted spider mites assessed as corrected mortality at 0.1600/2 g AI/L treated using worst-case laboratory exposure procedure measured after 72 hr; format: functional
Galendromus occidentalis [21] = assay: Toxicity against Metaseiulus occidentalis adults in bean leaf disk infested with two-spotted spider mites assessed as average number of eggs laid (fecundity) at 0.1600 g AI/L treated using worst-case laboratory exposure procedure measured after 48 hr (reference value: 2.30/day); format: functional
Galendromus occidentalis [22] = assay: Toxicity against Metaseiulus occidentalis adults in bean leaf disk infested with two-spotted spider mites assessed as repellency at 0.1600 g AI/L treated using worst-case laboratory exposure procedure measured after 48 hr (reference value: 13.6%); format: functional
Galendromus occidentalis [23] = assay: Toxicity against Metaseiulus occidentalis adults in bean leaf disk infested with two-spotted spider mites assessed as average number of eggs laid (fecundity) at 0.1600 g AI/L treated using worst-case laboratory exposure procedure measured after 72 hr (reference value: 2.23/day); format: functional
Galendromus occidentalis [24] = assay: Toxicity against Metaseiulus occidentalis adults in bean leaf disk infested with two-spotted spider mites assessed as repellency at 0.1600 g AI/L treated using worst-case laboratory exposure procedure measured after 24 hr (reference value: 3.6%); format: functional
Galendromus occidentalis [25] = assay: Toxicity against Metaseiulus occidentalis adults in bean leaf disk infested with two-spotted spider mites assessed as corrected mortality at 0.1600/32 g AI/L treated using worst-case laboratory exposure procedure measured after 72 hr; format: functional
Galendromus occidentalis [26] = assay: Toxicity against Metaseiulus occidentalis adults in bean leaf disk infested with two-spotted spider mites assessed as corrected mortality at 0.1600/16 g AI/L treated using worst-case laboratory exposure procedure measured after 72 hr; format: functional
Galendromus occidentalis [27] = assay: Toxicity against Metaseiulus occidentalis in hop fields assessed as mortality; format: functional
Galendromus occidentalis [28] = assay: Toxicity against Metaseiulus occidentalis adults in bean leaf disk infested with two-spotted spider mites assessed as average number of eggs laid (fecundity) at 0.3767 g AI/L treated using worst-case laboratory exposure procedure measured after 72 hr (reference value: 2.23/day); format: functional
Galendromus occidentalis [29] = assay: Toxicity against Metaseiulus occidentalis adults in bean leaf disk infested with two-spotted spider mites assessed as repellency at 0.3767 g AI/L treated using worst-case laboratory exposure procedure measured after 24 hr (reference value: 3.6%); format: functional
Galendromus occidentalis [30] = assay: Toxicity against Metaseiulus occidentalis adults in bean leaf disk infested with two-spotted spider mites assessed as repellency at 0.3767 g AI/L treated using worst-case laboratory exposure procedure measured after 72 hr (reference value: 16.1%); format: functional
Galendromus occidentalis [31] = assay: Toxicity against Metaseiulus occidentalis adults in bean leaf disk infested with two-spotted spider mites assessed as repellency at 0.3767 g AI/L treated using worst-case laboratory exposure procedure measured after 48 hr (reference value: 13.6%); format: functional
Galendromus occidentalis [32] = assay: Toxicity against Metaseiulus occidentalis adults in bean leaf disk infested with two-spotted spider mites assessed as average number of eggs laid (fecundity) at 0.3767 g AI/L treated using worst-case laboratory exposure procedure measured after 24 hr (reference value: 2.11/day); format: functional
Galendromus occidentalis [33] = assay: Toxicity against Metaseiulus occidentalis adults in bean leaf disk infested with two-spotted spider mites assessed as corrected mortality at 0.3767 g AI/L treated using worst-case laboratory exposure procedure measured after 72 hr; format: functional
Galendromus occidentalis [34] = assay: Toxicity against Metaseiulus occidentalis adults in bean leaf disk infested with two-spotted spider mites assessed as average number of eggs laid (fecundity) at 0.3767 g AI/L treated using worst-case laboratory exposure procedure measured after 48 hr (reference value: 2.30/day); format: functional

C/C(=N\C#N)N(C)Cc1ccc(Cl)nc1 [ACETAMIPRID]
mortality (Galendromus occidentalis [1]): 56.9%
LC50 (Galendromus occidentalis [2]): 0.021 gAi/L
mortality (Galendromus occidentalis [3]): 63.7%
Activity (Galendromus occidentalis [4]): 0 day⁻¹
Repellency (Galendromus occidentalis [5]): 16%
Repellency (Galendromus occidentalis [6]): 41%
mortality (Galendromus occidentalis [7]): 2%
Activity (Galendromus occidentalis [8]): 0.13 day⁻¹
mortality (Galendromus occidentalis [9]): 2.4%
mortality (Galendromus occidentalis [10]): 64.2%
mortality (Galendromus occidentalis [11]): 83.1%
Activity (Galendromus occidentalis [12]): 1.3 day⁻¹
Repellency (Galendromus occidentalis [13]): 50%
mortality (Galendromus occidentalis [14]): 42.4%

O=[N+]([O-])/N=C1\NCCN1Cc1ccc(Cl)nc1 [IMIDACLOPRID]
LC50 (Galendromus occidentalis [2]): 0.0156 gAi/L
mortality (Galendromus occidentalis [15]): 59.4%
Activity (Galendromus occidentalis [16]): 2.05 day⁻¹
mortality at 240000 µg/mL (stock) (Galendromus occidentalis [17]): 2.7%
mortality (Neoseiulus fallacis): 100%
mortality (Galendromus occidentalis [18]): 97.4%
mortality (Amblyseius andersoni): 35.6%
Repellency (Galendromus occidentalis [19]): 53.8%
mortality (Galendromus occidentalis [20]): 84.2%
Activity (Galendromus occidentalis [21]): 1.54 day⁻¹
Repellency (Galendromus occidentalis [22]): 51.9%
Activity (Galendromus occidentalis [23]): 1.3 day⁻¹
Repellency (Galendromus occidentalis [24]): 16%
mortality (Galendromus occidentalis [25]): 16.8%
mortality (Galendromus occidentalis [26]): 34.4%
mortality (Galendromus occidentalis [27]): 100%

COc1cccc(C(=O)NN(C(=O)c2cc(C)cc(C)c2)C(C)(C)C)c1C [METHOXYFENOZIDE]
Activity (Galendromus occidentalis [28]): 2.38 day⁻¹
Repellency (Galendromus occidentalis [29]): 3.8%
mortality at 240000 µg/mL (stock) (Galendromus occidentalis [17]): 3.1%
Repellency (Galendromus occidentalis [30]): 9%
Repellency (Galendromus occidentalis [31]): 5.8%
Activity (Galendromus occidentalis [32]): 1.93 day⁻¹
mortality (Galendromus occidentalis [33]): 1.3%
Activity (Galendromus occidentalis [34]): 2.15 day⁻¹

Reference: ChEMBL document CHEMBL3045618, “Effect of seven new orchard pesticides on Galendromus occidentalis in laboratory studies” (2009)
